The text below walks through data of patent EP0222274A1, “2-Hydroxybenzamides” (NIHON TOKUSHU NOYAKU SEIZO K.K., priority 1985, dated 1987).

For data set [1], the system named is Rosellinia necatrix. Nature of the data set: Control of root mould (Wurzelschimmel) in apple, cut twigs in infected soil. In kind it is in vivo. The note with it: Konzentration des Wirkstoffs 0,1 %; 5 ml per 100 ml soil; apple twigs (Star King), 3 weeks at 25°C; score 0 (kein Befall) to 5. The text has this:
(§1) Aktive Verbindung: 50 Gew.-Teile; Träger: 45 Gew.-Teile einer Mischung aus Diatomeenerde und Kaolin (1:5), Emulgator: 5 Gew.Teile Polyoxyethylenalkylphenylether.
(§2) Die aktive Verbindung, der Träger und der Emulgator in den oben angegebenen Mengen wurden pulverisiert und miteinander zu einem benetzbaren Pulver vermischt. Eine vorher festgegegte Menge des benetzbaren Pulvers wurde mit Wasser vermischt.
Test der Bekämpfung des Wurzelschimmels beim Apfel
In Reiskleie kultivierter Rosellinia necatrix wurde in sterilisierte Erde inokuliert, um eine infizierte Erde herzustellen. Eine wie in Beispiel 5 präparierte aktive Verbindung in vorher festgelegter Konzentration wurde in einer Menge von 5 ml pro 100 ml Erde gleichmäßig in die Erde hineingegossen und ausreichend mit dieser ver mischt. Abgeschnittene Apfelzweige (Varietät: Star King) wurden senkrecht in der Erde eingebettet, so daß die Hälfte jedes Zweiges in der Erde steckte. Die Zweige wurden dann unter Gewächshaus-Bedingungen bei 25°C gehalten. Drei Wochen später wurde der Grad des Befalls der Zweige durch den oben bezeichneten Pilz beurteilt und nach dem Grad der Verletzung anhand der folgenden […] bewertet:
0: Kein Befall; 1: geringfügiger Befall wurde beobachtet; 2: Befall wurde beobachtet auf 3 % bis weniger als 10 % der Oberfläche der Zweige; 3: Befall wurde beobachtet auf 10 % bis weniger als 30 % der Oberfläche der Zweige; 4: Befall wurde beobachtet auf 30 % bis weniger als 50 % der Oberfläche der Zweige; 5: Befall wurde beobachtet auf wenigstens 50 % der Oberfläche der Zweige.

Data set [2] deals with Plasmodiophora brassicae. Nature of the data set: Control of clubroot (Kohlhernie) in "Komatsuna" grown in infected soil, dust mixed into soil. In kind it is in vivo. The conditions noted are these: 4 weeks at 20°C. The text has this:
(§3) Test der Bekämpfung von Kohlhernie bei "Komatsuna" (einer Varietät chinesischen Kohls):
Präparat einer aktiven Verbindung:
(§4) Aktive Verbindung: 1,5 Teile; Isopropylhydrogenphosphat (PAP): 0,5 Teile; Ton-Pulver: 98 Teile.
(§5) Die oben angegebenen Stoffe wurden pulverisiert und vermischt, wodurch ein Stäubemittel erhalten wurde.
(§6) Mit Plasmodiophora brassicae infizierte Erde wurde in unglasierte Töpfe mit einem Durchmesser von 21 cm gefüllt, und ein Stäubemittel einer Verbindung gemäß der vorliegenden Erfindung, das wie oben angegeben hergestellt worden war, wurde in einer vorher festgelegten Konzentration gleichmäßig mit der Erde vermischt.
(§7) Samen von "Komatsuna" (Varietät: Misugi) wurden in einer Menge von 20 Körnern pro Topf eingesät. Die Töpfe wurden 4 Wochen in einem auf 20°C gehaltenen klimatisierten Gewächshaus gehalten. Dann wurden die Pflanzen ausgegraben, und der Krankheitszustand wurde nach dem folgenden Maßstab bewertet. Der Erkrankungs-Index und das Verhältnis der erkrankten Pflanzen wurden berechnet.
3: L₁ = Zahl der Pflanzen, deren Wurzeln durch das Auftreten der Kohlhernie (Kropfkrankheit) sehr stark vergrößert worden waren; 2: L₂ - Zahl der Pflanzen, bei denen Kohlhernie auftrat, jedoch auf die Pfahlwurzeln beschränkt war; 1: L₃ = Zahl der Pflanzen, bei denen geringsfügiges Auftreten von Kohlhernie beobachtet wurde; 0: L₄ = Zahl der gesunden Pflanzen. [formula]

Data set [3] has as its system "Komatsuna" (einer Varietät chinesischen Kohls). Nature of the data set: Phytotoxicity to "Komatsuna" in the clubroot control test. It is filed as in vivo, "Komatsuna" (Varietät: Misugi).
Excerpt: as §3, §4, §5, §6, §7

For data set [4], the system named is Rhizopus oryzae. Nature of the data set: Control of damping-off of rice seedlings, soil drench. The note with it: 500 ml per box, rice (Kusabue). It is filed as in vivo.
Excerpt: Test der Bekämpfung des Umfallens von Reis-Setzlingen (Wurzelbrand der Keimpflanzen)
Präparat einer Test-Verbindung:
as §1, §2
Sterilisierte Erde wurde mit in Reiskleie kultiviertem Rhizopus oryzae inokuliert. Die Erde wurde in Anzuchtkästen für Sämlinge (60 cm x 40 cm x 3 cm) eingefüllt. Die wie oben angegeben präparierte aktive Verbindung wurde in vorher festgelegter Konzentration in einer Menge von 500 ml pro Kasten gleichmäßig in die Erde hineingegossen. Samen von Reis (Varietät: Kusabue) wurden in einer Menge von 200 g (Trockengewicht) pro Kasten ausgesät und drei Tage in einer Anzucht-Vorrichtung bei 32°C kultiviert. Danach wurden die Anzucht-Kästen in ein Glashaus überführt und in üblicher Weise gehalten. 20 Tage später wurden 200 Setzlinge aus der Mitte jedes Anzuchtkastens herausgezogen, und der Grad der Verletzung wurde nach dem folgenden Maßstab bewertet. Der Bekämpfungs-Index und das Verhältnis der gesunden Setzlinge wurden berechnet.
Grad der Verletzung: 0: n₀ = gesunde Setzlinge; 1: n₁ = Setzlinge, bei denen das Wachstum der Haarwurzeln in geringem Maße schlecht war; 2: n₂ = Setzlinge, bei denen eine keulenartige Verformung teilweise an den Pfahlwurzeln beobachtet wurde; 3: n₃ = Setzlinge, bei denen das Wachstum der Pfahlwurzeln außerordentlich schlecht war und viele keulenartige Verformungen auftraten; 4: n₄ = Setzlinge, die keulenartig geworden waren, mit gehemmtem Wachstum der Pfahlwurzeln und Deckwurzeln.

[5] abbreviates: Konzentration des Wirkstoffs 0,1 %.
Where [6] appears, read: Konzentration des Wirkstoffs 0,15 %.

On to `CCCCNC(=O)n1c(NC(=O)OC)nc2ccccc21` [Benomyl handelsüblich, Methyl-1-(butylcarbamoyl)-2-benzimidazolcarbamat, reference compound], for which, in data set [1], the “Grad der der Verletzung” value was 1.
Turning to `CCOC(NC(=O)c1cc(Cl)ccc1O)C(Cl)(Cl)Cl` (centres unmarked) [Verbindung 1, N-(2,2,2-Trichloro-1-ethoxyethyl)-5-chloro-2-hydroxybenzamid], in data set [2] (Menge des Wirkstoffs 5 kg/ha), the Erkrankungs-Index was found to be 0% and the “Verhältnis der erkrankten Pflanzen” value was 0%. Moreover, the Phytotoxizität result in data set [3] (Menge des Wirkstoffs 5 kg/ha) is on record as “keine”.
Regarding `O=C(NC(OCC(F)(F)F)C(Cl)(Cl)Cl)c1cc(Cl)ccc1O` (centres unmarked) [Verbindung 4, N-[2,2,2-Trichloro-1-(2,2,2-trifluoroethoxy)ethyl]-5-chloro-2-hydroxybenzamid], in data set [2] (Menge des Wirkstoffs 5 kg/ha), the Erkrankungs-Index stood at 0% and the “Verhältnis der erkrankten Pflanzen” value is 0%. Moreover, in data set [4] (setting [5]), the Bekämpfungs-Index stood at 95%, the “Grad der Verletzung” value was 2,5% and the “Verhältnis der gesunden Setzlinge” value was 91,5%. Moreover, in data set [3] (Menge des Wirkstoffs 5 kg/ha), the Phytotoxizität result was “keine”.
`CCOC(NC(=O)c1ccccc1O)C(Cl)(Cl)Cl` (centres unmarked) [A-1, reference compound]: the “Grad der der Verletzung” value in data set [1] was 3. In data set [4] (setting [5]), the Bekämpfungs-Index turned out to be 43%, the “Grad der Verletzung” value was 28,3% and the “Verhältnis der gesunden Setzlinge” value is 35,5%. Further, in data set [3] (Menge des Wirkstoffs 20 kg/ha), the Phytotoxizität result was “keine”.
As for `O=C(NC(OCC(F)(F)F)C(Cl)(Cl)Cl)c1cc(Br)ccc1O` (centres unmarked) [Verbindung 8], in data set [2] (Menge des Wirkstoffs 5 kg/ha), the Erkrankungs-Index is reported as 1,3% and the “Verhältnis der erkrankten Pflanzen” value is listed as 7%. Moreover, the “Grad der der Verletzung” value in data set [1] was 0,5. For the same molecule, the Phytotoxizität result in data set [3] (Menge des Wirkstoffs 5 kg/ha) is “keine”.
Consider `C=CCOC(NC(=O)c1cc(Cl)ccc1O)C(Cl)(Cl)Cl` (centres unmarked) [Verbindung 2, N-(2,2,2-Trichloro-1-allyloxyethyl)-5-chloro-2-hydroxybenzamid], for which, in data set [2] (Menge des Wirkstoffs 5 kg/ha), the Erkrankungs-Index is 0% and the “Verhältnis der erkrankten Pflanzen” value was 0%. Besides, in data set [4] (setting [5]), the Bekämpfungs-Index came to 95%, the “Grad der Verletzung” value is given as 2,7% and the “Verhältnis der gesunden Setzlinge” value was 90,5%. Further, the Phytotoxizität result in data set [3] (Menge des Wirkstoffs 5 kg/ha) is “keine”.
Take `COC(NC(=O)c1cc(Cl)ccc1O)C(Cl)(Cl)Cl` (centres unmarked) [Verbindung 13]: the “Grad der der Verletzung” value in data set [1] is recorded as 0,5. Besides, in data set [4] (setting [5]), the Bekämpfungs-Index turned out to be 94%, the “Grad der Verletzung” value is on record as 3,0% and the “Verhältnis der gesunden Setzlinge” value was 85,0%.
In the case of `O=[N+]([O-])c1c(Cl)c(Cl)c(Cl)c(Cl)c1Cl` [PCNB handelsüblich, Pentachloronitrobenzol, reference compound], in data set [2] (Menge des Wirkstoffs 60 kg/ha), the Erkrankungs-Index is reported as 58,3% and the “Verhältnis der erkrankten Pflanzen” value is on record as 75%. Moreover, in data set [3] (Menge des Wirkstoffs 60 kg/ha), the Phytotoxizität entry is reported as “keine”.
Turning to `N#Cc1c(Cl)c(Cl)c(Cl)c(C#N)c1Cl` [TPN handelsüblich, Tetrachloroisophthalsäurenitril, reference compound], in data set [4] (setting [6]), the Bekämpfungs-Index is recorded as 85%, the “Grad der Verletzung” value is 7,3% and the “Verhältnis der gesunden Setzlinge” value is recorded as 75,5%.
Consider `O=C(NC(OCCBr)C(Cl)(Cl)Cl)c1ccccc1O` (centres unmarked) [B-1, reference compound], for which, in data set [4] (setting [5]), the Bekämpfungs-Index is reported as 60%, the “Grad der Verletzung” value is reported as 19,6% and the “Verhältnis der gesunden Setzlinge” value is 55,5%. Also, in data set [3] (Menge des Wirkstoffs 20 kg/ha), the Phytotoxizität entry is reported as “keine”.
For the molecule `CC(=O)Oc1ccc(Cl)cc1C(=O)NC(OCC(F)(F)F)C(Cl)(Cl)Cl` (centres unmarked) [Verbindung 12], in data set [2] (Menge des Wirkstoffs 5 kg/ha), the Erkrankungs-Index is reported as 0% and the “Verhältnis der erkrankten Pflanzen” value stood at 0%. The “Grad der der Verletzung” value in data set [1] is recorded as 0. In addition, in data set [4] (setting [5]), the Bekämpfungs-Index is recorded as 94%, the “Grad der Verletzung” value is given as 3,0% and the “Verhältnis der gesunden Setzlinge” value is recorded as 90,5%. In data set [3] (Menge des Wirkstoffs 5 kg/ha), the Phytotoxizität result is on record as “keine”.
As to `CCOC(NC(=O)c1cc(Cl)ccc1OC(C)=O)C(Cl)(Cl)Cl` (centres unmarked) [Verbindung 20, N-(2,2,2-Trichloro-1-ethoxyethyl)-2-acetoxy-5-chlorobenzamid], in data set [1], the “Grad der der Verletzung” value is 0,3.
